Read-outs that look alike come from different tables or passages of the source.
Columns and labels:
NanH-D237A [1] = target: T1, NanH-D237A (Tannerella forsythia, UniProt G8UIQ1, D224A); assay: crystal structure ([…] soak, […] Å) and tryptophan fluorescence quenching; format: binding
T1 construct: gene BFO_2207; C-terminally hexahistidine-tagged NanH
T1 sequence (G8UIQ1 21-539 D224A): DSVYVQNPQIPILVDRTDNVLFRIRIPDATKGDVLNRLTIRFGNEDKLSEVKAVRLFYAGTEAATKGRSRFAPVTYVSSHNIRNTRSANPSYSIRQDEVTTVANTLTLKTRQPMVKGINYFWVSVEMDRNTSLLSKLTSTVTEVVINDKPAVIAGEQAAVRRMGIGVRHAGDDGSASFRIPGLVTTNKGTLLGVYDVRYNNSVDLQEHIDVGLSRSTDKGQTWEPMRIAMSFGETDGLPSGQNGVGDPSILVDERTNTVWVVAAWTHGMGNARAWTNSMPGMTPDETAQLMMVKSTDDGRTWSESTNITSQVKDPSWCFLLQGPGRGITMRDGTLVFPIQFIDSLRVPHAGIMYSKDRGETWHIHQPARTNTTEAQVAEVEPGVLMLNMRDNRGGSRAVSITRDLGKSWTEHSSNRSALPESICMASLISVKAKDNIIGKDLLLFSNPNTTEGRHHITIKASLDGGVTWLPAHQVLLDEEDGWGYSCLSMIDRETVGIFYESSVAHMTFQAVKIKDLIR

NanH-D237A [2] = target: T1, NanH-D237A; assay: as above; format: binding; remark: listed apart in the source

| SMILES | Kd (NanH-D237A [1]) | Kd (NanH-D237A [2]) |
| --- | --- | --- |
| CC(=O)N[C@H]1[C@H]([C@H](O)[C@H](O)CO)O[C@@](OC[C@H]2O[C@@H](O[C@H]3[C@H](O)[C@@H](O)C(O)O[C@@H]3CO)[C@H](O)[C@@H](O)[C@H]2O)(C(=O)O)C[C@@H]1O (some centres unmarked) [6-SL] | 133 ± 48.3 µM | – |
| CC(=O)N[C@H]1[C@H]([C@H](O)[C@H](O)CO)O[C@@](O[C@H]2[C@@H](O)[C@@H](CO)O[C@@H](O[C@H]3[C@H](O)[C@@H](O)C(O)O[C@@H]3CO)[C@@H]2O)(C(=O)O)C[C@@H]1O (some centres unmarked) [3-SL] | – | 305 ± 91.5 µM |

Reference: article PMC9472817, “Structural and functional characterisation of a stable, broad-specificity multimeric sialidase from the oral pathogen Tannerella forsythia” (Biochemical Journal, 2022)
